Reference: patent US20230357159A1, “QUINOLINE COMPOUNDS AS SELECTIVE AND/OR DUAL MODULATORS OF BILE ACID RECEPTORS AND LEUKOTRIENE CYSTEINYL RECEPTORS” (PRECISION BIO-THERAPEUTICS S.R.L., priority 2020, published 2023)
In brackets after ≈: the same amount, converted by molar mass.

Experiments:
human GPBAR1 = molecular target: T1, human GPBAR1 (Homo sapiens, UniProt Q8TDU6); assay: GPBAR1-mediated transactivation, CRE-luciferase reporter in HEK-293T cells; format: cell-based; conditions: for GPBAR1 (% of activity compared to 10 µM TLCA): compound at 10 microM, TLCA = 100%
T1 construct: expressed in transfected cells; host or cells: HEK-293T
T1 sequence (Q8TDU6 1-330): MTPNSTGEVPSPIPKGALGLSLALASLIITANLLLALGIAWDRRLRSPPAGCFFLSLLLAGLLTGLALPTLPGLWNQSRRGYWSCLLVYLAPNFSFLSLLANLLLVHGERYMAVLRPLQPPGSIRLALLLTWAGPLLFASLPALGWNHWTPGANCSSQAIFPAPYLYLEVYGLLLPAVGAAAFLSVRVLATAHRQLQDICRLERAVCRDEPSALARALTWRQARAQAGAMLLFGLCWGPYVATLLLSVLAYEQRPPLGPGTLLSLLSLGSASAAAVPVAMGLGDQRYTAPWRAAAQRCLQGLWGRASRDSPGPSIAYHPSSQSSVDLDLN
Procedure: (§1) In this table, the activities of the compounds are compared with specific reference compounds, namely CDCA for FXR, TLCA for TGR5/GPBAR1, MK571 for CysLT1R. Each compound is tested at a concentration of 10 microM and the activity of the reference compounds is considered to be 100%.
In another experimental set, 24 hours after transfection, the cells were stimulated with 50 µM of the derivatives CHIN in combination with 10 µM of CDCA or TLCA.
(§2) Eighteen hours after stimulation, the cell lysates were used to assess Luciferase and Renilla activity by means of the Dual-Luciferase Reporter assay (E1980, Promega Madison WI). The luminescence was measured using the Glomax 20/20 luminometer (Promega, Madison WI) and the Luciferase activity was normalised with the Renilla activity.

CysLT1R = molecular target: T2, CysLT1R (Homo sapiens, UniProt Q9Y271); assay: CysLT1R antagonistic activity assay (Ca2+ fluorescence, 0.1 nM LTD4; Eurofins Cerep-Panlabs); format: cell-based; conditions: for IC50: antagonism of 0.1 nM LTD4, read-out: CysLTR1 ICso; for inhibition at 10 µM: read-out: CysLTR1 (% of inhibition compared to the compound MK571)
T2 construct: Eurofins Cerep-Panlabs (France)
T2 sequence (Q9Y271 1-337): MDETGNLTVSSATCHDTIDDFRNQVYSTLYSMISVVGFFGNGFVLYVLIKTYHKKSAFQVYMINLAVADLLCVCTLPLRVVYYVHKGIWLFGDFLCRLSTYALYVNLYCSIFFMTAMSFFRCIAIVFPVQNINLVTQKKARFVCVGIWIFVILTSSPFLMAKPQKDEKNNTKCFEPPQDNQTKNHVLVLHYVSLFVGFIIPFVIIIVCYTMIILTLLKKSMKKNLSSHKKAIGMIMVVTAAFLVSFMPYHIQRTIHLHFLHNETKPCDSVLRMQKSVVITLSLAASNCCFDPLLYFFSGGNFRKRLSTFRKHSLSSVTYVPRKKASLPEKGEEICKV
Procedure: as §1
The antagonistic activity assay was performed by Eurofins Cerep-Panlabs (France). […] The plates are then placed in a microplate reader (CellLux, PerkinElmer), which is used to add the compounds to be tested or the HBSS buffer and then after 5 min with a 0.1 nM LTD4 or HBSS buffer solution (used as control). The change in intensity and fluorescence that varies in proportion to the concentration of free Ca^2+ ion in the cytosol is measured.

FXR [1] = molecular target: T3, FXR (Homo sapiens, UniProt Q96RI1); assay: FXR-mediated transactivation, luciferase reporter in HepG2 cells; format: cell-based; conditions: compound at 10 microM, CDCA = 100%
T3 construct: expressed in transfected cells; host or cells: HepG2
T3 sequence (Q96RI1 1-486): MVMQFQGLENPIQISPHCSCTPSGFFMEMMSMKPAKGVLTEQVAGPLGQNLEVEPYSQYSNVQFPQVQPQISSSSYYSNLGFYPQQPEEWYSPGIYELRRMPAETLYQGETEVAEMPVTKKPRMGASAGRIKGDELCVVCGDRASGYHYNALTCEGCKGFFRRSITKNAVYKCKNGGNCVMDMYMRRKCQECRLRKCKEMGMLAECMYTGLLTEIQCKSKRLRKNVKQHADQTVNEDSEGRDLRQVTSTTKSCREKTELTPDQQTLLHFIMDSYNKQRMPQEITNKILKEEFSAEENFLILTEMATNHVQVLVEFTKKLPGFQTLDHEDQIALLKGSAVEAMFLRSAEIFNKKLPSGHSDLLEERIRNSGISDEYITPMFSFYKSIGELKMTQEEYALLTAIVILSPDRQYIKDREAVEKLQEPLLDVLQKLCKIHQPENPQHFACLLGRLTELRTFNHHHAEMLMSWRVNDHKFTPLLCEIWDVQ
T3 sequence (P19793 1-462 partner): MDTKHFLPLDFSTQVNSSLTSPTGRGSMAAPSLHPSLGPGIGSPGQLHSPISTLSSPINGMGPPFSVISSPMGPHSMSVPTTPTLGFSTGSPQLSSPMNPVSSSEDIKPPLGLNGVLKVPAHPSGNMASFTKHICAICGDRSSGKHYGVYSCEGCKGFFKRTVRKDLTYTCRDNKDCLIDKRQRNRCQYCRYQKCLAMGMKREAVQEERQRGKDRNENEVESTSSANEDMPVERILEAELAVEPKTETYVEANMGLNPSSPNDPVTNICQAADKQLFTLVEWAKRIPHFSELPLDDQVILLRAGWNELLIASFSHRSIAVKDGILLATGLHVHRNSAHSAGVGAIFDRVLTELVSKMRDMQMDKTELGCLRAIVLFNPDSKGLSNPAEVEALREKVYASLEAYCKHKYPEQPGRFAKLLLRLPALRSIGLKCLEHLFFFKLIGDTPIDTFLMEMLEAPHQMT
Procedure: as §1
For FXR-mediated transactivation, the HepG2 cells were transfected with 200 ng of the p(hsp27)-TK-LUC reporter vector containing the FXR response element (IR1) cloned from the heat shock protein 27 (hsp27) promoter, 100 ng of pSG5-FXR, 100 ng of pSG5-RXR and 100 of pGL4.70 (Promega, Madison WI), a vector encoding for the human Renilla gene. […]
as §2

S9 fraction = assay: Metabolic stability in vitro, S9 fraction; format: in vitro ADME; conditions: also phase II enzymes
wild-type C57/B16 mice = assay: Acetaminophen (APAP)-induced acute hepatitis in mice; format: in vivo; conditions: APAP 500 mg/kg oral gavage; 30 mg/kg orally 45 min after induction; 24 hours
Procedure: CHIN117 and the effect thereof in reducing acetaminophen-induced liver damage (APAP) are of particular interest. In the experimental set, acute hepatitis was induced in wild-type C57/B16 mice by administration of acetaminophen (APAP) at a concentration of 500 mg/kg via oral gavage. 45 minutes after induction of the disease, CHIN117 was administered at a concentration of 30 mg/kg orally. The mice were sacrificed 24 hours after induction of the disease and blood was taken and analysed for blood count and AST and ALT transaminase values.
The administration of the compound CHIN117 was able to alleviate the APAP-induced liver damage by reducing AST and ALT values by about 10-fold if compared to those recorded in the group of mice treated with APAP alone.

male C57BL/6 mice = assay: HFD-F diet murine model of NAFLD/NASH; format: in vivo; conditions: 30 mg/kg daily from day 7
Procedure: CHIN117 and the efficacy thereof in a murine model of chronic hepatitis induced by a high-fat diet are of particular interest. This murine model simulates NAFLD, which represents a rapidly growing epidemic in industrialised countries and has a very high cost for the health care system. In this model, the mice (male C57BL/6 mice) were fed a diet rich in lipids and cholesterol (2% cholesterol) and added fructose (3%) in water (HFD-F) for 60 days. CHIN117 was administered daily at a dose of 30 mg/kg starting on day 7. […] After eight weeks, the mice develop insulin resistance, as shown by the OGTT results (FIGS. 4E, F).
In addition, HFD-F indicates an increase in body mass index (BMI) and weight of the white adipose tissue of the epididymis (eWAT), of the brown adipose tissue (BAT) and of the liver (FIGS. 5C-I).

Aqueous solubility = format: physicochemical; conditions: pH 7.4
FXR [2] = molecular target: T3, FXR; assay: FXR-mediated transactivation, luciferase reporter in HepG2 cells; format: cell-based; conditions: dose-response 0.1-75 µM, read-out: FXR ECso
[3] = compound at 10 microM, MK571 = 100%, 0.1 nM LTD4

GPBAR1 (% of activity compared to 10 µM TLCA) (human GPBAR1) [%]	inhibition at 10 µM (CysLT1R; [3]) [%]	FXR (% of activity compared to 10 µM CDCA) (FXR [1]) [%]	SMILES	also measured
17.58	59	12.78	COC(=O)c1cc(O)cc(OCc2ccc3ccccc3n2)c1 [CHIN107, methyl 3-hydroxy-5-(quinolin-2-ylmethoxy)benzoate]	IC50 (CysLT1R): > 10 µM
13.5	13	6.83	COC(=O)c1ccc(-c2ccc(OCc3ccc4ccccc4n3)cc2)cc1 [CHIN119, Methyl 4′-(quinolin-2-ylmethoxy)-[1,1′-biphenyl]-4-carboxylate]	
	79		CC(C)Oc1cccc(OCc2ccc3ccccc3n2)c1 [CHIN111, 2-((3-isopropoxyphenoxy)methyl)quinoline]	
56.91	21	11.14	COC(=O)c1cccc(-c2ccc(OCc3ccc4ccccc4n3)cc2)c1 [CHIN116, Methyl 4′-(quinolin-2-ylmethoxy)-[1,1′-biphenyl]-3-carboxylate]	
82	109	8.9	O=C(O)c1cccc(-c2ccc(OCc3ccc4ccccc4n3)cc2)c1 [CHIN117, 4′-(quinolin-2-ylmethoxy)-[1,1′-biphenyl]-3-carboxylic Acid]	CLint S9 fraction (S9 fraction): 6; EC50 (human GPBAR1; dose-response 0.1-75 µM, read-out: GPBAR1 ECso): 4.6 µM; circulating white blood cell (WBC) values (wild-type C57/B16 mice): comparable to those found in untreated mice; reduction of ALT values compared to mice treated with APAP alone (wild-type C57/B16 mice): about 10 fold; reduction of AST values compared to mice treated with APAP alone (wild-type C57/B16 mice): about 10 fold; reduction of weight gain (male C57BL/6 mice; HFD-F diet 60 days): about 3 grams; hepatic steatosis, BMI and eWAT, BAT and liver weight (male C57BL/6 mice; HFD-F diet for 8 weeks): almost completely reversed the disease; AUC of OGTT (male C57BL/6 mice; HFD-F diet, after eight weeks): reduces the AUC of OGTT; ALT levels (male C57BL/6 mice; plasma, HFD-F diet): statistically reduces; AST levels (male C57BL/6 mice; plasma, HFD-F diet): statistically reduces; LDL levels (male C57BL/6 mice; plasma, HFD-F diet): statistically reduces; IC50 (CysLT1R): 5.67 µM; aqueous solubility (Aqueous solubility): 66 µM (≈ 23.5 µg/mL)
36.74	43	12.76	O=C(O)c1ccc(-c2ccc(OCc3ccc4ccccc4n3)cc2)cc1 [CHIN120, 4′-(quinolin-2-ylmethoxy)-[1,1′-biphenyl]-4-carboxylic Acid]	
			OCc1cccc(-c2ccc(OCc3ccc4ccccc4n3)cc2)c1 [CHIN118]	CysLTR1 (% of inhibition compared to the compound MK571) (CysLT1R; [3]): 59%
23		32.46	COC(=O)c1cccc(OCc2ccc3ccccc3n2)c1 [CHIN104, Methyl 3-(Quinolin-2-ylmethoxy)Benzoate]	EC50 (FXR [2]): 9 µM
	26	5.92	OCc1cc(O)cc(OCc2ccc3ccccc3n2)c1 [CHIN109, 3-(hydroxymethyl) -5-(quinolin-2-ylmethoxy)phenol]	
		8.22	O=C(O)c1cc(O)cc(OCc2ccc3ccccc3n2)c1 [CHIN108, 3-hydroxy-5-(quinolin-2-ylmethoxy)benzoic Acid]	

SMILES	GPBAR1 (% of activity compared to 10 µM TLCA) (human GPBAR1) [%]	inhibition at 10 µM (CysLT1R; [3]) [%]	FXR (% of activity compared to 10 µM CDCA) (FXR [1]) [%]	also measured
CCC(C)COc1cccc(OCc2ccc3ccccc3n2)c1 (stereo not shown) [CHIN114, 2-((3-(2-methylbutoxy)phenoxy)methyl)quinoline]		15		
OCc1cccc(-c2ccc(OCc3ccc4ccccc4n3)cc2)c1 [CHIN121, (4′-(quinolin-2-ylmethoxy)-[1,1′-biphenyl]-3-yl)methanol]	64.9		8.22	
